Results: paper PMC11859928, “Design, Synthesis, and Antiproliferative Activity of Novel Indole/1,2,4-Triazole Hybrids as Tubulin Polymerization Inhibitors” (Pharmaceuticals, 2025)
Where two headings read alike, the source gives them in different places.

How the values were obtained:
HCC-2998 = test: NCI five-dose assay; assay type: cell-based, human; settings: Homo sapiens, HCC-2998, five dose levels
EKVX = test: NCI five-dose assay; assay type: cell-based, human; settings: five dose levels
OVCAR-3 = test: NCI five-dose assay; assay type: cell-based, human; settings: OVCAR-3, five dose levels
MDA-MB-468 = test: NCI five-dose assay; assay type: cell-based, human; settings: MDA-MB-468, five dose levels
CAKI-1 = test: NCI five-dose assay; assay type: cell-based, human; settings: CAKI-1, five dose levels
MCF7 = test: NCI five-dose assay; assay type: cell-based, human; settings: MCF7, five dose levels
SF-268 = test: NCI five-dose assay; assay type: cell-based, human; settings: SF-268, five dose levels
OVCAR-8 = test: NCI five-dose assay; assay type: cell-based, human; settings: OVCAR-8, five dose levels
UACC-62 = test: NCI five-dose assay; assay type: cell-based, human; settings: UACC-62, five dose levels
SNB-19 = test: NCI five-dose assay; assay type: cell-based, human; settings: SNB-19, five dose levels
HOP-92 = test: NCI five-dose assay; assay type: cell-based, human; settings: HOP-92, five dose levels
K-562 = test: NCI five-dose assay; assay type: cell-based, human; settings: Homo sapiens, K562, K-562, five dose levels
HS 578T = test: NCI five-dose assay; assay type: cell-based, human; settings: five dose levels
Renal cancer subpanel = test: NCI five-dose assay, subpanel mean; assay type: cell-based, human
CNS cancer subpanel = test: NCI five-dose assay, subpanel mean; assay type: cell-based, human
T-47D = test: NCI five-dose assay; assay type: cell-based, human; settings: five dose levels
NCI-H460 = test: NCI five-dose assay; assay type: cell-based, human; settings: NCI-H460, five dose levels
OVCAR-4 = test: NCI five-dose assay; assay type: cell-based, human; settings: OVCAR-4, five dose levels
NCI-H226 = test: NCI five-dose assay; assay type: cell-based, human; settings: Homo sapiens, NCI-H226, five dose levels
HOP-62 = test: NCI five-dose assay; assay type: cell-based, human; settings: HOP-62, five dose levels
Colon cancer subpanel = test: NCI five-dose assay, subpanel mean; assay type: cell-based, human
[1] = test system: Non-small cell lung cancer subpanel; test: NCI five-dose assay, subpanel mean; assay type: cell-based, human
Prostate cancer subpanel = test: NCI five-dose assay, subpanel mean; assay type: cell-based, human
BT-549 = test: NCI five-dose assay; assay type: cell-based, human; settings: BT-549, five dose levels
tubulin = molecular target: T1, tubulin (Sus scrofa, UniProt P02550+P02554); test: Tubulin polymerization inhibitory assay; assay type: biochemical
T1 construct: purchased Cytoskeleton Inc., Denver, CO, USA
T1 sequence (P02554 whole entry): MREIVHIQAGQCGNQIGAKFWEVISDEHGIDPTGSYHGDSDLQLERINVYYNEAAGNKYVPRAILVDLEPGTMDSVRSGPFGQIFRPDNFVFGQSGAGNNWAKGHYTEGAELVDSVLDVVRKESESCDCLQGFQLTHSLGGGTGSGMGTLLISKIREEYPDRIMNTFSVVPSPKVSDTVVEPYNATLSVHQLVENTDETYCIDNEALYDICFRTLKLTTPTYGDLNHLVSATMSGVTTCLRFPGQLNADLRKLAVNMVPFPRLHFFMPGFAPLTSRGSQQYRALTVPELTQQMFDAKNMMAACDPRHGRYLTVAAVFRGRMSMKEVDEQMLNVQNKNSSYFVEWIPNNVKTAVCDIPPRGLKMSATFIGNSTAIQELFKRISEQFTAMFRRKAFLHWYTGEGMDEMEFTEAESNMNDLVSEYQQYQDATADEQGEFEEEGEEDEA
T1 sequence (P02550 whole entry): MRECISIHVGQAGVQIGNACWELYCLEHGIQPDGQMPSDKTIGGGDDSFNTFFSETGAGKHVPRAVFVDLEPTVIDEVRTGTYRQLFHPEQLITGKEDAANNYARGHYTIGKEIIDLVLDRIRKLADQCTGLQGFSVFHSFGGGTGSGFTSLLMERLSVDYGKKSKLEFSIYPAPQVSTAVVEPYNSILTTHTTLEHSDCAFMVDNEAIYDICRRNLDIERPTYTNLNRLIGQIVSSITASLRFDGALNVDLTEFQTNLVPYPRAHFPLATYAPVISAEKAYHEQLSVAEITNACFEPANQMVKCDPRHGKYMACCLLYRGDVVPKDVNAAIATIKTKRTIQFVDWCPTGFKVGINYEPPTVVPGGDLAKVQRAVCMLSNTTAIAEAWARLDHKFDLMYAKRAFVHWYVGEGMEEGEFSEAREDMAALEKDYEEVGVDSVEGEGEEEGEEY
Description: The substances’ effects on tubulin polymerization were examined using the Tubulin Polymerization Assay Kit (Cytoskeleton Inc., Denver, CO, USA) according to the supplier’s instructions, with details described in Appendix A..
The activity of compounds on tubulin polymerization was investigated using the Tubulin Polymerization Assay Kit (Cytoskeleton Inc., Denver, CO, USA), which works via fluorescent reporter enhancement. […] Docetaxel and vincristine (Apoteket AB, Stockholm, Sweden) served as positive stabilizing and destabilizing controls. Both were used at a 3 µM concentration in PBS.

[2] = read-out: GI50 Conc. per Cell Lines
[3] = read-out: LC50 (the source's name)
[4] = Homo sapiens, read-out: GI50 Conc. per Cell Lines
[5] = Homo sapiens, read-out: LC50 (the source's name)

For O/N=C(\CSc1nnc(-c2c[nH]c3ccccc23)n1-c1ccccc1)c1ccc(Cl)cc1 [Compound 7j, (Z)-2-((5-(1H-Indol-3-yl)-4-phenyl-4H-1,2,4-triazol-3-yl)thio)-1-(4-chlorophenyl) Ethanone Oxime], the GI50 (HCC-2998; [2]) was 4.74 µM, the CC50 (HCC-2998; [3]) was > 100 µM and the GI50 (EKVX; [4]) was 3.21 µM. The CC50 (EKVX; [5]) was > 100 µM, the “TGI Conc. per Cell Lines” value (EKVX) was 19.2 µM and the LC50 (OVCAR-3; Homo sapiens) was > 100 µM. For the same compound, the GI50 (OVCAR-3; [4]) was 4.58 µM, the “TGI Conc. per Cell Lines” value (OVCAR-3) was 32.4 µM and the LC50 (MDA-MB-468; Homo sapiens) was 46 µM. For the same compound, the GI50 (MDA-MB-468; [4]) was 1.72 µM, the “TGI Conc. per Cell Lines” value (MDA-MB-468) was 3.47 µM and the “TGI Conc. per Cell Lines” value (CAKI-1) was 12.4 µM. The LC50 (CAKI-1; Homo sapiens) was > 100 µM, the GI50 (CAKI-1; [4]) was 2.93 µM and the LC50 (MCF7; Homo sapiens) was 22.5 µM. The GI50 (MCF7; [4]) was 3.63 µM, the “TGI Conc. per Cell Lines” value (MCF7) was 21.6 µM and the GI50 (SF-268; [4]) was 2.11 µM. The CC50 (SF-268; [5]) was > 100 µM, the “TGI Conc. per Cell Lines” value (SF-268) was 5.08 µM and the GI50 (OVCAR-8; [4]) was 3.72 µM. For the same compound, the CC50 (OVCAR-8; [5]) was > 100 µM, the “TGI Conc. per Cell Lines” value (OVCAR-8) was 15.8 µM and the GI50 (UACC-62; [4]) was 2.62 µM. The CC50 (UACC-62; [5]) was > 100 µM, the “TGI Conc. per Cell Lines” value (UACC-62) was 10.1 µM and the GI50 (SNB-19; [4]) was 6.89 µM. The CC50 (SNB-19; [5]) was > 100 µM, the “TGI Conc. per Cell Lines” value (SNB-19) was 45.2 µM and the “TGI Conc. per Cell Lines” value (HOP-92) was 37.6 µM. For the same compound, the GI50 (HOP-92; [4]) was 3.84 µM, the CC50 (HOP-92; [5]) was > 100 µM and the GI50 (K-562; [2]) was 2.55 µM. The CC50 (K-562; [3]) was > 100 µM, the LC50 (HS 578T; Homo sapiens) was > 100 µM and the GI50 (HS 578T; [4]) was 3.09 µM. For the same compound, the “TGI Conc. per Cell Lines” value (HS 578T) was 16.6 µM, the GI50 (Renal cancer subpanel; Homo sapiens, Renal cancer, average sensitivity of all cell lines of the subpanel, read-out: GI50 Subpanel MID b) was 5.23 µM and the “GI50 Selectivity Ratio (MID a/MID b)” value (Renal cancer subpanel; Renal cancer subpanel) was 0.69. For the same compound, the “GI50 Selectivity Ratio (MID a/MID b)” value (CNS cancer subpanel; CNS cancer subpanel) was 0.763, the GI50 (CNS cancer subpanel; Homo sapiens, CNS cancer, average sensitivity of all cell lines of the subpanel, read-out: GI50 Subpanel MID b) was 4.78 µM and the LC50 (concentration killing 50% of cells) (T-47D; Homo sapiens, T47D) was > 100 µM. For the same compound, the GI50 (T-47D; Homo sapiens, T47D, read-out: GI50 Conc. per Cell Lines) was 3.6 µM, the “TGI Conc. per Cell Lines” value (T-47D) was 31.4 µM and the GI50 (NCI-H460; [4]) was 3.33 µM. For the same compound, the CC50 (NCI-H460; [5]) was > 100 µM, the “TGI Conc. per Cell Lines” value (NCI-H460) was 15.7 µM and the LC50 (OVCAR-4; Homo sapiens) was > 100 µM. For the same compound, the GI50 (OVCAR-4; [4]) was 1.96 µM, the “TGI Conc. per Cell Lines” value (OVCAR-4) was 4.32 µM and the GI50 (NCI-H226; [2]) was 3.99 µM. The CC50 (NCI-H226; [3]) was 61.8 µM, the “TGI Conc. per Cell Lines” value (HOP-62) was 3.65 µM and the GI50 (HOP-62; [4]) was 1.74 µM. For the same compound, the “GI50 Selectivity Ratio (MID a/MID b)” value (Colon cancer subpanel; Colon cancer subpanel) was 0.978, the GI50 (Colon cancer subpanel; Homo sapiens, Colon cancer, average sensitivity of all cell lines of the subpanel, read-out: GI50 Subpanel MID b) was 3.73 µM and the GI50 ([1]; Homo sapiens, Non-small cell lung cancer, average sensitivity of all cell lines of the subpanel, read-out: GI50 Subpanel MID b) was 3.86 µM. For the same compound, the “GI50 Selectivity Ratio (MID a/MID b)” value ([1]; Non-small cell lung cancer subpanel) was 0.945, the GI50 (Prostate cancer subpanel; Homo sapiens, Prostate cancer, average sensitivity of all cell lines of the subpanel, read-out: GI50 Subpanel MID b) was 2.45 µM and the “GI50 Selectivity Ratio (MID a/MID b)” value (Prostate cancer subpanel; Prostate cancer subpanel) was 1.48. The “TGI Conc. per Cell Lines” value (BT-549) was 11.1 µM, the GI50 (BT-549; [4]) was 3.71 µM and the CC50 (BT-549; [5]) was 6.28 µM. The “%inhibition” value (tubulin; conc 0.01 (unit not given; IC50 from this curve in µg/ml)) was 5.23%, the “%inhibition” value (tubulin; conc 0.1 (unit not given; IC50 from this curve in µg/ml)) was 15.6% and the “%inhibition” value (tubulin; conc 1 (unit not given; IC50 from this curve in µg/ml)) was 34.8%. For the same compound, the “%inhibition” value (tubulin; conc 10 (unit not given; IC50 from this curve in µg/ml)) was 58.9%, the “%inhibition” value (tubulin; conc 100 (unit not given; IC50 from this curve in µg/ml)) was 87.6% and the IC50 (tubulin; read-out: Tub. IC50±SD (converted)) was 6.26 µM. It also gave an IC50 (tubulin; read-out: Tubulin Inhibitory Effect, IC50) of 6.26 ± 0.15 µM.
